Results from paper PMC9823191, “Production, characterization and techno-economic evaluation of Aspergillus fusant L-asparaginase” (AMB Express, 2023).

Tested on: T1, Fusant-06 L-ASNase
T1 construct: native extracellular enzyme from fusant fermentation broth; PEG/citrate ATPS then Sephadex G-100; may be recombined from both parents
Test: ammonia release (Imada assay); Lineweaver-Burk plot
Type: biochemical
Settings: L-asparagine 0.005–1.28 mM; 5 µg/mL (0.043 µM) enzyme; optimum conditions (pH and temperature not stated for the kinetics)

NC(=O)C[C@H](N)C(=O)O [L-asparagine]
Km: 66.7 µM
